Laboratory results reported in ChEMBL document CHEMBL4651402, “Screening of ~5500 FDA-approved drugs and clinical candidates for anti-SARS-CoV-2 activity” (2021).

Test system: SARS-CoV-2
Test: microbe, parasite or virus in culture
Settings: Severe acute respiratory syndrome coronavirus 2, Vero C1008, 48 h

SMILES | IC50 | IC50 (read-out: pIC50 (converted))
CCCN1CCOC2c3cc(O)ccc3CCC21 (stereo not given) | > 20 µM | > 20 µM
CC(C)CN(C[C@@H](O)[C@H](Cc1ccccc1)NC(=O)O[C@H]1CCOC1)S(=O)(=O)c1ccc(N)cc1 | > 20 µM | > 20 µM
CCCCCCCCCCCCOS(=O)(=O)O | > 20 µM | > 20 µM
CC(=O)N[C@@H]1[C@@H](O)[C@@H](O)[C@@H](CO)O[C@@H]1O | > 20 µM | > 20 µM
CN(C)CC(=O)O | > 20 µM | > 20 µM
O=P(O)(O)OC[C@H](O)CO | > 20 µM | > 20 µM
COc1ccc(N2CCN(c3cccc(C)c3)CC2)nn1 | > 20 µM | > 20 µM
S=C(Nc1ccccc1)Nc1nccs1 | > 20 µM | > 20 µM
CCN(CC)C(=O)N[C@@H]1CC2c3cccc4[nH]cc(c34)CC2N(C)C1 (stereo not given in full) | > 20 µM | > 20 µM
CC(C)OC(=O)[C@H](C)NP(=O)(OC[C@H]1O[C@@H](n2ccc(=O)[nH]c2=O)[C@](C)(F)[C@@H]1O)Oc1ccccc1 (stereo not given in full) | > 20 µM | > 20 µM
CC(C)c1ccc2c(c1)CCC1C(C)(C(N)=O)CCCC21C (stereo not given) | > 20 µM | > 20 µM
COC(=O)C1=COC(O[C@H]2OC(CO)[C@H](O)C(O)C2O)[C@H]2C1C(=O)C[C@@H]2C (stereo not given in full) | > 20 µM | > 20 µM
CN(C)CCN(Cc1ccccc1)c1ccccc1 | > 20 µM | > 20 µM
CC12C=CC(=O)C=C1CCC1C2C(=O)CC2(C)C1CC[C@]2(O)C(=O)CO (stereo not given in full) | > 20 µM | > 20 µM
CCOC(=O)[C@H](CCc1ccccc1)N[C@@H](C)C(=O)N1Cc2ccccc2C[C@H]1C(=O)O | > 20 µM | > 20 µM
CCC12CCCN3CCc4c(n(c5ccccc45)C(O)(C(=O)OC)C1)C32 (stereo not given) | > 20 µM | > 20 µM
CCN1CCN(C(=O)NC(C(=O)NC2C(=O)N3C2SC(C)(C)C3C(=O)O)c2ccccc2)C(=O)C1=O (stereo not given) | > 20 µM | > 20 µM
COC(=O)C(N)Cc1ccc(O)c(O)c1 (stereo not given) | > 20 µM | > 20 µM
CC(=O)C1(O)CCC2C3CC(C)C4=CC(=O)C=CC4(C)C3(F)C(O)CC21C (stereo not given) | > 20 µM | > 20 µM
CC(C(O)(Cn1cncn1)c1ccc(F)cc1F)S(C)(=O)=O (stereo not given) | > 20 µM | > 20 µM
CC(=O)NC1(c2ccccc2)CCN(CC[C@@H](CN(C)C(=O)c2ccccc2)c2ccc(Cl)c(Cl)c2)CC1 | > 20 µM | > 20 µM
CC(C)CCCCCCCCCCCCCCC(=O)O | > 20 µM | > 20 µM
Oc1ccc2c3c1O[C@H]1[C@@H](O)CC[C@@]4(O)C(C2)N(CC2CCC2)CCC314 (stereo not given in full) | > 20 µM | > 20 µM
CC1C(=O)OC2CCN3CC=C(COC(=O)C(C)(O)C1(C)O)C23 (stereo not given) | > 20 µM | > 20 µM
C[C@H](CN1CCOCC1)C(C(=O)N1CCCC1)(c1ccccc1)c1ccccc1 | > 20 µM | > 20 µM
O=C(CN1C(=O)c2ccccc2S1(=O)=O)Nc1ccc(O)cc1 | > 20 µM | > 20 µM
NC(=O)c1csc(C2OC(CO)C(O)C2O)n1 (stereo not given) | > 20 µM | > 20 µM

SMILES | IC50 | IC50 (read-out: pIC50 (converted))
O=c1[nH]c(=O)n(C2CC(O)C(CO)O2)cc1Br (stereo not given) | > 20 µM | > 20 µM
NCC1CCC(C(=O)O)CC1 (stereo not given) | > 20 µM | > 20 µM
Cc1ncc[nH]1 | > 20 µM | > 20 µM
O=C1CCCC2C3CC(CN12)[C@@H]1CCCCN1C3 (stereo not given in full) | > 20 µM | > 20 µM
O=C1CC(c2ccc(O)c(O)c2)Oc2cc(O)cc(O)c21 (stereo not given) | > 20 µM | > 20 µM
CC12CCC3C4CCC(=O)C=C4CCC3C1CCC2=O (stereo not given) | > 20 µM | > 20 µM
CC(=O)C1CCC2C3CCC4=CC(=O)CCC4C3CCC12C (stereo not given) | > 20 µM | > 20 µM
COc1ccc2[nH]c3c(c2c1)CCN=C3C | > 20 µM | > 20 µM
Cc1c(NC(=O)C(C)N(C)C)c(=O)n(-c2ccccc2)n1C (stereo not given) | > 20 µM | > 20 µM
COc1cc2c(c(OC)c1OC)-c1ccc(O)c(=O)cc1C(N)CC2 (stereo not given) | > 20 µM | > 20 µM
CCOc1ccccc1O[C@H](c1ccccc1)[C@H]1CNCCO1 | > 20 µM | > 20 µM
COC(=O)C(N)CCCNC(=N)N[N+](=O)[O-] (stereo not given) | > 20 µM | > 20 µM
CN(Cc1cnc2nc(N)nc(N)c2n1)c1ccc(C(=O)NC(CCC(=O)O)C(=O)O)cc1 (stereo not given) | > 20 µM | > 20 µM
NC(=O)CC[C@H](NC(=O)Cc1ccccc1)C(=O)O | > 20 µM | > 20 µM
O=C(O)CC(S)C(=O)O (stereo not given) | > 20 µM | > 20 µM
O=C(OCc1ccccc1)c1ccc(O)cc1 | > 20 µM | > 20 µM
C[C@@H]1C\C=C/C=C\C=C/C=C\[C@H](O[C@@H]2O[C@H](C)[C@@H](O)[C@H](N)[C@@H]2O)C[C@@H]2O[C@](O)(C[C@@H](O)C[C@H]3O[C@@H]3/C=C\C(=O)O1)C[C@H](O)[C@H]2C(=O)O | > 20 µM | > 20 µM
C[C@@H]1CC(=O)NN=C1c1ccc2c(c1)OCC(=O)N2 | > 20 µM | > 20 µM
COc1ccc(CCNCCC(=O)N2CCCSc3ccccc32)cc1OC | > 20 µM | > 20 µM
CC12CCC3C(CCC4CC(O)CCC43C)C1CCC2=O (stereo not given) | > 20 µM | > 20 µM
CCOC(=O)C(CCc1ccccc1)NC(C)C(=O)N(CC(=O)O)C1Cc2ccccc2C1 (stereo not given) | > 20 µM | > 20 µM
C[C@H](CCC(=O)NCCS(=O)(=O)O)[C@H]1CC[C@H]2[C@@H]3[C@@H](O)CC4C[C@H](O)CC[C@]4(C)[C@H]3CC[C@]12C (stereo not given in full) | > 20 µM | > 20 µM
C=C1C(=O)OC2C[C@@]3(C)CCC[C@H](C)C3=CC12 (stereo not given in full) | > 20 µM | > 20 µM
CC12CCC(=O)C=C1CCC1C3CC[C@](C)(O)C3(C)CC(O)[C@@]12F (stereo not given in full) | > 20 µM | > 20 µM
C=C[C@](C)(O)CC[C@H]1C(=C)C[C@H](OC(C)=O)[C@H]2C(C)(C)CCC[C@]12C | > 20 µM | > 20 µM
CCCCCC(=O)O[C@]1(C(C)=O)CCC2C3CCC4=CC(=O)CCC4(C)C3CCC21C (stereo not given in full) | > 20 µM | > 20 µM
CC(C)(O)[C@@H]1CC[C@](C)(C2[C@@H](O)C[C@@]3(C)[C@H]4C[C@H](O[C@H]5OC(CO)[C@H](O)C(O)C5O)[C@H]5C(C)(C)C(O[C@@H]6OC[C@@H](O)C(O)C6O)CC[C@@]56C[C@@]46CC[C@]23C)O1 (stereo not given in full) | > 20 µM | > 20 µM

SMILES | IC50 | IC50 (read-out: pIC50 (converted))
CN(C(=O)CO/N=C(/c1ccccc1)c1ccc2c(c1)CN1CC(=O)NC1=N2)C1CCCCC1 | > 20 µM | > 20 µM
CNc1nccc(-c2cc3cc(C(=O)N[C@@H](CN(c4ccccc4)c4ncccn4)C(N)=O)ccc3[nH]2)n1 | > 20 µM | > 20 µM
O=C(O)c1ccc(N[C@H]2OC[C@H](O)[C@@H](O)[C@H]2O)cc1 | > 20 µM | > 20 µM
CC[C@@H]1CCN[C@H](C(=O)N[C@H]([C@H]2O[C@H](SC)[C@H](O)[C@@H](O)[C@H]2O)[C@H](C)Cl)C1 | > 20 µM | > 20 µM
CC(=O)OC1C=C2CCC3C(CCC4(C)C(OC(C)=O)CCC34)C2(C)CC1 (stereo not given) | > 20 µM | > 20 µM
Nc1nc(Cl)nc2c1ncn2[C@@H]1C[C@H](O)[C@@H](CO)O1 | > 20 µM | > 20 µM
NC(C=O)C(O)C(O)C(O)CO (stereo not given) | > 20 µM | > 20 µM
CCCCCCN1CCN(/C(=N/CC(C)C)c2ccccc2)CC1 | > 20 µM | > 20 µM
CC12CCCC1C1CC[C@H]3CCCC[C@]3(C)C1CC2 (stereo not given in full) | > 20 µM | > 20 µM
COc1ccc2c3c1O[C@H]1[C@@H](O)C=C[C@H]4[C@@H](C2)[N@+](C)([O-])CC[C@@]341 | > 20 µM | > 20 µM
CN(N=O)C(=O)N[C@@H](C=O)[C@@H](O)[C@H](O)[C@H](O)CO.CN(N=O)C(=O)N[C@H]1C(O)O[C@H](CO)[C@@H](O)[C@@H]1O | > 20 µM | > 20 µM
C[C@@H]1CC[C@@]2(OC1)O[C@H]1C[C@H]3[C@H]4CC[C@H]5C[C@@H](O[C@@H]6O[C@H](CO)[C@@H](O[C@@H]7O[C@H](CO)[C@@H](O)[C@H](O)[C@H]7O)[C@H](O)[C@H]6O)CC[C@@]5(C)[C@H]4CC[C@]3(C)[C@H]1[C@@H]2C | > 20 µM | > 20 µM
CC(=O)OCC(=O)[C@@]1(O)CC[C@H]2C3CCC4=CC(=O)C=CC4(C)[C@H]3C(=O)CC21C (stereo not given in full) | > 20 µM | > 20 µM
CC(=O)OC1CCC2C3CC[C@H]4CC(=O)C(C)=CC4(C)C3CCC12C (stereo not given in full) | > 20 µM | > 20 µM
C#C[C@]1(O)CC[C@H]2[C@@H]3CCC4=CC(=NO)CC[C@@H]4[C@H]3CC[C@@]21CC | > 20 µM | > 20 µM
O=C(O)c1nn(-c2ccc(S(=O)(=O)O)cc2)c(O)c1/N=N/c1ccc(S(=O)(=O)O)cc1 | > 20 µM | > 20 µM
CC12CCC3C4CCC(O)CC4=CCC3C1CCC2O (stereo not given) | > 20 µM | > 20 µM
CC(=O)OCC(=O)C1CCC2C3CC[C@H]4CC(O)CCC4(C)C3C(=O)CC12C (stereo not given in full) | > 20 µM | > 20 µM
COc1ccc(CC(C)C(C)Cc2ccc(OC)c(OC)c2)cc1OC (stereo not given) | > 20 µM | > 20 µM
C1CN1c1nc(N2CC2)nc(N2CC2)n1 | > 20 µM | > 20 µM
CN1C2CCC1CC(OC1c3ccccc3CCc3ccccc31)C2 (stereo not given) | > 20 µM | > 20 µM
O=C(C1CCCCC1)N1CC(=O)N2CCCc3ccccc3C2C1 (stereo not given) | > 20 µM | > 20 µM
O=C(CO)[C@@H]1CCCN1C(=O)[C@@H]1CCCN1C(=O)NCc1ccccc1 | > 20 µM | > 20 µM
OCC1OC(Oc2ccc(O)cc2)C(O)C(O)C1O (stereo not given) | > 20 µM | > 20 µM
Oc1c(Cc2ccccc2)ccc2ccccc12 | > 20 µM | > 20 µM
C#CCN(C)C(C)Cc1ccccc1 (stereo not given) | > 20 µM | > 20 µM
